Laboratory results as given in patent publication US4443619A, “Chlorocitric acids” (Hoffmann-La Roche Inc., priority 1981, dated 1984).
Where a name gives a salt, the structure may show the parent alone.

Columns and labels:
[1] = Effect of stereoisomers of chlorocitric acid on food consumption in meal-fed rats (Example 14); type: in vivo, Charles River female rats; conditions: mean ± S.E.
Procedure: Animals were fasted 48 hr, then meal-fed the 70% glucose diet described by A. C. […] Following 5 to 12 days alimentation on the meal-feeding regimen, rats were dosed with the appropriate compounds orally by intubation 1/2 hr before the 3 hr meal. Food cups were weighed immediately after the meal. The control group consisted of 5 to 10 rats, while the experimental group consisted of 4 to 6 rats.

[2] = Anorectic effect in 8 hour meal-fed Zucker rats (Example 17); type: in vivo, lean (Fa/-) and obese (fa/fa)
Procedure: Lean (Fa/-) Zucker rats and obese (fa/fa) Zucker rats of both sexes were individually housed in wire-bottomed cages in a temperature-regulated (22° C.) light-controlled room (12 hr light, 6 a.m. to 6 p.m. and 12 hr dark, 6 p.m. 6 a.m.). The animals were fed a high carbohydrate (70% glucose) diet ad libitum for 13 days, dosed with the indicated compounds by oral intubation for 9 days and allowed to recover for 3 days. The animals were then meal fed from 8 a.m. to 4 p.m. for a period of 5 days, following which they were continued on the same meal schedule for an additional 6 days. During the 6-day period, the animals were administered the indicated compounds by oral intubation at 8 a.m. and 12 p.m. Food cups were weighed immediately after the meal.

[3] = Body weight gain in 8 hour meal-fed Zucker rats (Example 18); type: in vivo, lean (Fa/-) and obese (fa/fa); conditions: 6 days, mean ± S.E.
Procedure: Lean (Fa/-) Zucker rats and obese (fa/fa) Zucker rats of both sexes were individually housed in wire-bottomed cages in a temperature-regulated (22° C.) light-controlled room (12 hr light, 6 a.m. to 6 p.m. and 12 hr dark, 6 p.m. to 6 a.m.). The animals were fed a high carbohydrate (70% glucose) diet ad libitum for 13 days, dosed with the indicated compounds by oral intubation for 9 days and allowed to recover for 3 days. The animals were then meal fed from 8 a.m. to 4 p.m. for a period of 5 days, following which they were continued on the same meal schedule for an additional 6 days. During the 6-day period, the animals were administered the indicated compounds by oral intubation at 8 a.m. and 12 p.m. Body weight gain during the 6-day period was determined.

[4] = Anorectic activity, body weight and carcass analysis in mammals (summary statements); type: in vivo; conditions: acute meal-fed assay utilizing three diets and pyramiding dose studies; compared with hydroxycitric acid
Stomach Emptying = test: Effect on stomach emptying ([14C]glucose load) in rats (Example 25); type: in vivo; conditions: 0.33 mmoles/kg oral, 60 min after [14C]glucose load, mean ± S.E.
Procedure: Rats were trained to consume a 3 hr 70% glucose meal from 8 a.m. to 11 a.m. daily. On the experimental day, compounds were administered orally by intubation 30 min before a [^14 C]glucose load was given also by intubation. […] Sixty minutes later the rats were killed by decapitation; blood and stomachs were collected on ice.
Data are expressed as follows: dpm×10^3 per ml of serum and dpm×10^3 per stomach.

[5] = Anorectic activities of stereoisomers: 3-day food consumption and body weight gain in meal-fed rats; type: in vivo, Charles River female rats; conditions: 1.32 mmoles/kg oral, 3 days, mean ± S.E.
Procedure: Charles River female rats (Charles River Breeding Laboratories, Wilmington, Mass.), weighing 196 to 210 g, were individually housed in wire-bottomed cages in a temperature-regulated (22° C.) light-controlled room (12 hr light, 6 a.m. to 6 p.m. and 12 hr dark, 6 p.m. to 6 a.m.). Animals were fasted 48 hr, then meal-fed a 70% glucose diet from 8 to 11 a.m. Following 5 to 12 days alimentation on the meal-feeding regimen, rats were dosed with the appropriate compounds orally by intubation 1/2 hr before the 3 hr meal for 3 days. The total food consumption and body weight gained during the 3 day period were determined. The control group consisted of 16 rats, while the experimental group consists of 8 rats.

[6] = Food intake in dogs, pyramiding oral doses (Examples 26 and 27); type: in vivo, beagle dogs
Procedure: Twelve beagle dogs of both sexes weighing 7.6-12.2 kg were used for this test. The test compounds were contained in gelatin capsules for oral administration to two dogs of each sex. The animals were weighed and food consumption calculated daily excluding weekends throughout the test period. Each animal received 800 grams of diet daily consisting of 400 grams of Wayne pellet dog food mixed with 400 ml distilled water. The animals received pyramiding oral doses of the test compound over the three week period. On Monday and Tuesday of the first week the animals were weighed and food consumption was recorded (control). The animals received 3 mg/kg on Wednesday and 10 mg/kg on Friday of the first week. Doses of 30, 100 and 300 mg/kg were administered on Monday, Wednesday and Friday respectively during the second week. A final dose of 1000 mg/kg was administered on Monday of the third week.
Food intake was determined by the procedure by pyramiding doses described in Example 26.

[7] = Food consumption of three diets in meal-fed rats (Example 15); type: in vivo, Charles River female rats; conditions: mean ± S.E.
Procedure: Charles River female rats (Charles River Breeding Laboratories, Wilmington, Mass.), weighing 170 to 200 g, were individually housed in wire-bottomed cages in a temperature-regulated (22° C.) light-controlled room (12 hr light, 6 a.m. to 6 p.m. and 12 hr dark, 6 p.m. to 6 a.m.). Animals were fasted 48 hr, then meal-fed the indicated diets from 8 to 11 a.m. Following 5 to 12 days alimentation on the meal-feeding regimen, rats were dosed with the appropriate compounds orally by intubation 1/2 hr before the 3 hr meal. Food cups were weighed immediately after the 1st, 2nd and 3rd hr of the meal. The control groups consisted of 8 to 10 rats and the experimental group considered of 5 to 6 rats.

[8] = 2.63 mmoles/kg oral, control 13.5 ± 0.8
[9] = 0.66 mmoles/kg oral, control 8.2 ± 1.2
[10] = test day 20, no dose, (±) one animal, (+) and (-) two animals
[11] = 20% Corn Oil, 0.33 mmoles (75 mg)/kg oral
[12] = 20% Corn Oil, 0.66 mmoles (150 mg)/kg oral
[13] = 70% Glucose, 0.33 mmoles (75 mg)/kg oral
[14] = 70% Glucose, 0.66 mmoles (150 mg)/kg oral
[15] = Chow, 0.33 mmoles (75 mg)/kg oral
[16] = Chow, 0.66 mmoles (150 mg)/kg oral

Compound: O=C(O)CC(O)(CC(=O)O)C(=O)O [Citric Acid]
- Food consumption [1, 8]: 12.7 ± 1.7 g
- Daily Food Consumption ([2]; Fa/- lean, 1.32 mmoles/kg oral, treatment day 1): 10.6 ± 1.2 g
- Daily Food Consumption ([2]; Fa/- lean, 1.32 mmoles/kg oral, treatment day 2): 10.0 ± 1.2 g
- Daily Food Consumption ([2]; Fa/- lean, 1.32 mmoles/kg oral, treatment day 3): 12.7 ± 1.0 g
- Daily Food Consumption ([2]; Fa/- lean, 1.32 mmoles/kg oral, treatment day 4): 11.9 ± 0.7 g
- Daily Food Consumption ([2]; Fa/- lean, 1.32 mmoles/kg oral, treatment day 5): 12.6 ± 0.8 g
- Daily Food Consumption ([2]; Fa/- lean, 1.32 mmoles/kg oral, treatment day 6): 13.1 ± 0.9 g
- Daily Food Consumption ([2]; Fa/- lean, 1.32 mmoles/kg, day 0 (pretreatment)): 11.0 ± 0.8 g
- Daily Food Consumption ([2]; fa/fa obese, 1.32 mmoles/kg oral, treatment day 1): 11.4 ± 0.8 g
- Daily Food Consumption ([2]; fa/fa obese, 1.32 mmoles/kg oral, treatment day 2): 13.8 ± 1.2 g
- Daily Food Consumption ([2]; fa/fa obese, 1.32 mmoles/kg oral, treatment day 3): 16.5 ± 1.0 g
- Daily Food Consumption ([2]; fa/fa obese, 1.32 mmoles/kg oral, treatment day 4): 14.8 ± 0.9 g
- Daily Food Consumption ([2]; fa/fa obese, 1.32 mmoles/kg oral, treatment day 5): 15.7 g
- Daily Food Consumption ([2]; fa/fa obese, 1.32 mmoles/kg oral, treatment day 6): 16.0 ± 1.0 g
- Daily Food Consumption ([2]; fa/fa obese, 1.32 mmoles/kg, day 0 (pretreatment)): 13.4 ± 0.8 g
- Body Weight Gain ([3]; Fa/- lean, 1.32 mmoles/kg b.i.d. oral): 2.8 ± 3.7 g
- Body Weight Gain ([3]; fa/fa obese, 1.32 mmoles/kg b.i.d. oral): 3.4 ± 1.6 g
- anorectic activity as measured by reduction in food consumption [4]: inactive

Compound: O=C(O)CC(O)(CC(=O)O)C(=O)O [Trisodium Citrate, reference compound]
- Serum, total per ml (Stomach Emptying): 6.4 ± 0.1 dpm × 10^3
- Stomach Contents, total per stomach (Stomach Emptying): 1180 ± 208 dpm × 10^3

Compound: O=C(O)C[C@](O)(C(=O)O)[C@@H](Cl)C(=O)O [(-)-erythro-Chlorocitric acid, (-)-erythro-chlorocitric acid]
- 3-Day Body Weight Gain [5]: -4.8 ± 3.2 g
- 3-Day Food Consumption [5]: 24.5 ± 1.8 g
- Food consumption [1, 9]: 7.0 ± 1.9 g
- Food consumption [1, 8]: 7.2 ± 1.5 g
- Serum, total per ml (Stomach Emptying): 5.1 ± 0.4 dpm × 10^3
- Stomach Contents, total per stomach (Stomach Emptying): 1491 ± 232 dpm × 10^3

Compound: O=C(O)C[C@@](O)(C(=O)O)[C@H](Cl)C(=O)O [(+)-erythro-Chlorocitric acid, (+)-erythro-chlorocitric acid]
- 3-Day Body Weight Gain [5]: -1.5 ± 2.3 g
- 3-Day Food Consumption [5]: 31.8 ± 2.3 g
- Food consumption [1, 9]: 8.1 ± 1.6 g
- Food consumption [1, 8]: 10.5 ± 0.8 g
- Serum, total per ml (Stomach Emptying): 5.0 ± 0.4 dpm × 10^3
- Stomach Contents, total per stomach (Stomach Emptying): 1832 ± 160 dpm × 10^3

Compound: O=C(O)C[C@](O)(C(=O)O)[C@H](Cl)C(=O)O [(+)-threo-Chlorocitric acid, (+)-threo-chlorocitric acid]
- 3-Day Body Weight Gain [5]: -3.5 ± 1.2 g
- 3-Day Food Consumption [5]: 26.5 ± 1.3 g
- Food consumption [1, 9]: 6.8 ± 1.0 g
- Food consumption [1, 8]: 5.1 ± 1.2 g
- Daily Food Consumption ([2]; Fa/- lean, 0.66 mmoles/kg oral, treatment day 1): 10.1 ± 0.8 g
- Daily Food Consumption ([2]; Fa/- lean, 0.66 mmoles/kg oral, treatment day 2): 8.7 ± 0.3 g
- Daily Food Consumption ([2]; Fa/- lean, 0.66 mmoles/kg oral, treatment day 3): 11.7 ± 0.7 g
- Daily Food Consumption ([2]; Fa/- lean, 0.66 mmoles/kg oral, treatment day 4): 9.8 ± 0.9 g
- Daily Food Consumption ([2]; Fa/- lean, 0.66 mmoles/kg oral, treatment day 5): 12.8 ± 0.9 g
- Daily Food Consumption ([2]; Fa/- lean, 0.66 mmoles/kg oral, treatment day 6): 11.4 ± 0.7 g
- Daily Food Consumption ([2]; Fa/- lean, 0.66 mmoles/kg, day 0 (pretreatment)): 10.6 ± 0.8 g
- Daily Food Consumption ([2]; fa/fa obese, 0.66 mmoles/kg oral, treatment day 1): 10.3 ± 0.4 g
- Daily Food Consumption ([2]; fa/fa obese, 0.66 mmoles/kg oral, treatment day 2): 8.8 ± 0.8 g
- Daily Food Consumption ([2]; fa/fa obese, 0.66 mmoles/kg oral, treatment day 3): 11.3 ± 1.0 g
- Daily Food Consumption ([2]; fa/fa obese, 0.66 mmoles/kg oral, treatment day 4): 11.6 ± 1.2 g
- Daily Food Consumption ([2]; fa/fa obese, 0.66 mmoles/kg oral, treatment day 5): 12.3 ± 1.5 g
- Daily Food Consumption ([2]; fa/fa obese, 0.66 mmoles/kg oral, treatment day 6): 14.2 ± 1.8 g
- Daily Food Consumption ([2]; fa/fa obese, 0.66 mmoles/kg, day 0 (pretreatment)): 14.3 ± 1.4 g
- Food Consumption, % of control [6, 10]: 96 % of control
- Food consumption [6, 10]: 583 ± 17 g
- Food consumption ([6]; test days -2, -1, before dosing (control period)): 610 ± 43 g
- Food intake, 1st hr [7, 11]: 7.1 ± 1.2 g
- Food intake, 2nd hr [7, 11]: 3.9 ± 0.5 g
- Food intake, 3rd hr [7, 11]: 3.2 ± 0.6 g
- Food intake, Total [7, 11]: 14.2 ± 1.2 g
- Food intake, 1st hr [7, 12]: 6.7 ± 1.6 g
- Food intake, 2nd hr [7, 12]: 3.1 ± 0.6 g
- Food intake, 3rd hr [7, 12]: 2.2 ± 0.7 g
- Food intake, Total [7, 12]: 12.3 ± 1.6 g
- Food intake, 1st hr [7, 13]: 6.2 ± 1.8 g
- Food intake, 2nd hr [7, 13]: 2.4 ± 0.8 g
- Food intake, 3rd hr [7, 13]: 2.4 ± 0.5 g
- Food intake, Total [7, 13]: 11.0 ± 2.3 g
- Food intake, 1st hr [7, 14]: 3.2 ± 0.5 g
- Food intake, 2nd hr [7, 14]: 5.1 ± 1.3 g
- Food intake, 3rd hr [7, 14]: 1.7 ± 0.3 g
- Food intake, Total [7, 14]: 10.1 ± 1.7 g
- Food intake, 1st hr [7, 15]: 7.4 ± 0.6 g
- Food intake, 2nd hr [7, 15]: 2.6 ± 0.7 g
- Food intake, 3rd hr [7, 15]: 2.2 ± 0.5 g
- Food intake, Total [7, 15]: 12.2 ± 0.4 g
- Food intake, 1st hr [7, 16]: 7.7 ± 0.5 g
- Food intake, 2nd hr [7, 16]: 3.9 ± 0.5 g
- Food intake, 3rd hr [7, 16]: 1.8 ± 0.9 g
- Food intake, Total [7, 16]: 13.4 ± 0.9 g
- Body Weight Gain ([3]; Fa/- lean, 0.66 mmoles/kg b.i.d. oral): 2.5 ± 2.3 g
- Body Weight Gain ([3]; fa/fa obese, 0.66 mmoles/kg b.i.d. oral): -3.6 ± 2.0 g
- Serum, total per ml (Stomach Emptying): 3.4 ± 0.6 dpm × 10^3
- Stomach Contents, total per stomach (Stomach Emptying): 1946 ± 361 dpm × 10^3
